From US6933396B2, “Process to prepare psorospermin” (Cylene Pharmaceuticals, priority 2002, dated 2005)

How the values were obtained:
various tumor cell lines = test: MTS cytotoxicity / cell viability assays with various tumor cell lines; assay type: cell-based
From the text: FIG. 1 illustrates a comparison of (R,R)-psorospermin with (R,R)-5-methoxy-psorospermin, (R,S)-5-methoxy-psorospermin, (S,R)-5-methoxy-psorospermin and (S,S)-5-methoxy-psorospermin in cell viability assays with various tumor cell lines.
MTS cytotoxicity data was collected for a comparison of (R,R)-psorospermin with (R,R)-5-methoxy-psorospermin, (R,S)-5-methoxy-psorospermin, (S,R)-5-methoxy-psorospermin and (S,S)-5-methoxy-psorospermin in cell viability assays with various tumor cell lines, the results of which are shown in FIG. 1.

[1] = Blood plasma levels (pharmacokinetics) after i.v. injection in rats; assay type: in vivo, Sprague Dawley rats; conditions: for blood plasma levels of parent compound: over 24 h
Procedure: Blood plasma levels of psorospermin over 24 h after a 5 mg/Kg injection i.v. in Sprague Dawley rats were measured. Blood plasma levels of 5-methoxy-psorospermin over 24 h after a 5 mg/Kg injection i.v. in Sprague Dawley rats were measured.

[2] = 5 mg/Kg injection i.v., Sprague Dawley rats

Row | Compound | activity relative to stereoisomeric counterparts (various tumor cell lines; compared with (2R′, 3S′) or (2S′, 3S′) counterparts) | antitumor activity in a variety of cell lines (various tumor cell lines; variety of cell lines including those of solid tumors and lymphomas, compared with natural product psorospermin) | time for which a therapeutic dose is exhibited in rodents ([1]; 5 mg/Kg injection i.v., Sprague Dawley rats, FIG. 3) | blood plasma levels of parent compound [1, 2] | systemic presence ([1]; in comparison with 2′R,3′R psorospermin) | blood plasma levels of parent compound ([1]; 5 mg/Kg injection i.v., Sprague Dawley rats, listed as natural product)
1 | COc1cccc2c(=O)c3c(OC)cc4c(c3oc12)C[C@H]([C@@]1(C)CO1)O4 [(R,R)-5-Methoxypsorospermin, (2′R,3′R) 5-Methoxy Psorospermin] | more active than their (2R′, 3S′) or (2S′, 3S′) counterparts | comparable antitumor activity to that of the natural product psorospermin | exceeds two hours | prolonged measurable quantities of the parent with a good half life | prolonged systemic presence in comparison with 2′R,3′R psorospermin | 
2 | COc1cc2c(c3oc4c(O)cccc4c(=O)c13)C[C@H]([C@@]1(C)CO1)O2 [psorospermin, (2′R,3′R) Psorospermin] |  |  |  | Little parent compound can be detected within the first 24 h after dosing |  | could be barely detected at any time point
